Experiment [1] concerns the target T1, S. aureus topoisomerase IV (Staphylococcus aureus, UniProt P0C1S7+P0C1U9).
T1 construct: purchased Inspiralis
Put plainly: S. aureus topoisomerase IV decatenation assay. In kind it is biochemical. The procedure: The assay was performed using S. aureus topoisomerase IV […] kit (Inspiralis). Kinetoplast DNA (kDNA) was the substrate for topoisomerase IV.

A further experiment concerns the target S. aureus DNA gyrase (Staphylococcus aureus, UniProt P0A0K8+P20831). Briefly: biochemical.
The test system of a further experiment is SW480 cells. Put plainly: MTT assay, SW480. It counts as cell-based, human. The settings on record: for IC50: human primary colon cancer, 72 h, MTT, mean ± SD; for SI SW480: SI = IC50 for normal cell line (HaCaT)/IC50 cancer cell line.
A further experiment has as its system SW620 cells. Put plainly: MTT assay, SW620. In kind it is cell-based, human. The settings on record: for IC50: Homo sapiens, SW-620, 72 h, human metastatic colon cancer, 72 h, MTT, mean ± SD; for SI SW620: SI = IC50 for normal cell line (HaCaT)/IC50 cancer cell line.
The subject of the next experiment is PC3 cells. Put plainly: MTT assay, PC3. In kind it is cell-based, human. The settings on record: for IC50: Homo sapiens, PC-3, 72 h, human metastatic prostate cancer, 72 h, MTT, mean ± SD; for SI PC3: SI = IC50 for normal cell line (HaCaT)/IC50 cancer cell line. A general note: Formazan colour is commonly taken as a measure of viable cells.
The next experiment has as its system HaCaT cells. Put plainly: MTT assay, HaCaT normal cells. In kind it is cell-based. The settings on record: human immortal keratinocyte cell line, 72 h, mean ± SD.
For a further experiment, the system named is S. aureus NCTC 4163. Briefly: MIC, twofold microdilution, standard strain. It counts as cell-based. The settings on record: Staphylococcus aureus, NCTC4163; 18 h of treatment; read-out: MIC S. aureus NCTC 4163. On the technique in general: Broth dilution looks for growth in wells or tubes with falling amounts of substance.
The subject of a further experiment is S. aureus ATCC 25923. Briefly: MIC, twofold microdilution, standard strain. It counts as cell-based. The settings on record: Staphylococcus aureus, ATCC25923; 18 h of treatment; read-out: MIC S. aureus ATCC 25923.
For the next experiment, the system named is S. aureus ATCC 6538. Briefly: MIC, twofold microdilution, standard strain. In kind it is cell-based. The settings on record: Staphylococcus aureus, ATCC6538; 18 h of treatment; read-out: MIC S. aureus ATCC 6538.
In the next experiment the test system is S. aureus ATCC 29213. Briefly: MIC, twofold microdilution, standard strain. It counts as cell-based. The settings on record: Staphylococcus aureus, ATCC29213; 18 h of treatment; read-out: MIC S. aureus ATCC 29213.
The test system of experiment [2] is S. epidermidis ATCC 12228. Put plainly: MIC, twofold microdilution, standard strain. It counts as cell-based. The settings on record: Staphylococcus epidermidis, ATCC12228; 18 h of treatment; read-out: MIC S. epidermidis ATCC 12228.
Experiment [3] relates to S. epidermidis ATCC 35984. Briefly: MIC, twofold microdilution, standard strain. It counts as cell-based. The settings on record: Staphylococcus epidermidis, ATCC35984; 18 h of treatment; read-out: MIC S. epidermidis ATCC 35984.
For another experiment, the system named is E. coli ATCC 25922. Put plainly: MIC, twofold microdilution, standard strain. It counts as cell-based, Escherichia coli. The settings on record: Escherichia coli, ATCC25922; 18 h of treatment; read-out: MIC E. coli ATCC 25922.
The test system of the next experiment is P. aeruginosa ATCC 27853. Briefly: MIC, twofold microdilution, standard strain. It counts as cell-based. The settings on record: Pseudomonas aeruginosa, read-out: MIC P. aeruginosa ATCC 27853.
Experiment [4] has as its system S. epidermidis KR 4047 825/19. Put plainly: MIC, clinical S. epidermidis strain. The settings on record: Staphylococcus epidermidis, KR4047825/19, quinolone-resistant, 18 h of treatment. In kind it is cell-based.
The test system of experiment [5] is S. epidermidis KR 4243 829/19. Put plainly: MIC, clinical S. epidermidis strain. It counts as cell-based. The settings on record: Staphylococcus epidermidis, KR4243829/19, quinolone-susceptible, 18 h of treatment.
Experiment [6] relates to S. epidermidis KR 4313 834/19. Briefly: MIC, clinical S. epidermidis strain. The settings on record: Staphylococcus epidermidis, KR4313834/19, quinolone-susceptible, 18 h of treatment. In kind it is cell-based.
Experiment [7] relates to S. epidermidis KR 4358/2 840/19. Briefly: MIC, clinical S. epidermidis strain. In kind it is cell-based. The settings on record: Staphylococcus epidermidis, KR4358/2840/19; clinical S. epidermidis, quinolone-susceptible, 18 h of treatment; read-out: MIC KR 4358/2 840/19.
Experiment [8] deals with S. epidermidis T 5253 845/19. Briefly: MIC, clinical S. epidermidis strain. In kind it is cell-based. The settings on record: Staphylococcus epidermidis, T5253845/19, quinolone-resistant, 18 h of treatment.
Experiment [9] deals with S. epidermidis T 5399 848/19. Briefly: MIC, clinical S. epidermidis strain. In kind it is cell-based. The settings on record: Staphylococcus epidermidis, T5399848/19, quinolone-susceptible, 18 h of treatment.
Experiment [10] deals with S. epidermidis T 5501 851/19. Briefly: MIC, clinical S. epidermidis strain. The settings on record: Staphylococcus epidermidis, T5501851/19, read-out: MIC T 5501 851/19, quinolone-susceptible, 18 h of treatment. It counts as cell-based.
In a further experiment the test system is M. tuberculosis H37Rv. Put plainly: MABA (microplate Alamar blue assay) MIC. It counts as cell-based. The settings on record: Mycobacterium tuberculosis, 336 h, read-out: MIC M. tuberculosis H37Rv. On the technique in general: Resazurin is reduced to fluorescent resorufin, in cell work by metabolically active cells.
For experiment [11], the system named is M. tuberculosis Spec. 192 (Sensitive to Tuberculostatics). Put plainly: MABA (microplate Alamar blue assay) MIC. It counts as cell-based. The settings on record: Mycobacterium tuberculosis, 336 h, read-out: MIC M. tuberculosis Spec. 192 (Sensitive to Tuberculostatics).
Experiment [12] has as its system standard staphylococci (S. aureus, S. epidermidis). Briefly: MIC, standard Gram-positive strains as a group. In kind it is cell-based. The settings on record: Staphylococcus aureus; range over standard Gram-positive strains; read-out: MIC against standard staphylococci.

We go through six compounds from publication PMC9181188 (International Journal of Molecular Sciences, 2022).

Values after ≈ are worked out from the molar mass of the structure shown. Like-named read-outs stand apart in the source and are kept apart here.

The term IC50 denotes the point on the concentration scale where inhibition reaches its midpoint. Low values mean greater potency, high ones weaker potency.

As to `CC=CC=CC(=O)N1CCN(c2cc3c(cc2F)c(=O)c(C(=O)O)cn3C2CC2)CC1` [Compound 2], the IC50 is 75.2 µM in experiment [1] and 79.9 µM at S. aureus DNA gyrase.
Turning to `CC(C)=CCCC(C)=CC(=O)N1CCN(c2cc3c(cc2F)c(=O)c(C(=O)O)cn3C2CC2)CC1` [Compound 3], the concentration for half-maximal inhibition (IC50) in experiment [1] is > 133 µM; against S. aureus DNA gyrase, 107 µM.
In the case of `CCCCCCCC/C=C\CCCCCCCCCCCC(=O)N1CCCC2CN(c3c(F)cc4c(=O)c(C(=O)O)cn(C5CC5)c4c3OC)CC21` (centres unmarked) [Compound 7m, 1-Cyclopropyl-7-{1-(Z)-docos-13-enoyl-octahydro-pyrrolo[3,4-b]pyridin-6-yl}-6-fluoro-8-methoxy-4-oxo-1,4-dihydro-quinoline-3-carboxylic acid], the concentration for half-maximal inhibition (IC50) was 48.6 ± 2.6 µM in the experiment with SW480 cells (Homo sapiens, SW480, 72 h); 51.8 ± 4.3 µM in the experiment on SW620 cells; 36.5 ± 2.3 µM in the experiment with PC3 cells; 85.2 ± 3.3 µM in the experiment on HaCaT cells. Moreover, the “SI SW480” value in the experiment with SW480 cells was determined as 1.8. For the same compound, the “SI SW620” value with SW620 cells worked out at 1.6. Also, the “SI PC3” value in the experiment on PC3 cells is 2.3. Further, the MIC came out at 256 µg/mL (≈ 355 µM) in the experiment on S. aureus NCTC 4163; 512 µg/mL (≈ 709 µM) in the experiment with S. aureus ATCC 25923; 128 µg/mL (≈ 177 µM) with S. aureus ATCC 6538; 512 µg/mL (≈ 709 µM) with S. aureus ATCC 29213; 512 µg/mL (≈ 709 µM) in [2]; 256 µg/mL (≈ 355 µM) in experiment [3]. Moreover, the MIC in the experiment on E. coli ATCC 25922 is 256 µg/mL (≈ 355 µM); in the experiment with P. aeruginosa ATCC 27853 (ATCC27853, 18 h), > 512 µg/mL; in [4] it was 512 µg/mL (≈ 709 µM); in experiment [5] it was 256 µg/mL (≈ 355 µM); in experiment [6], 256 µg/mL (≈ 355 µM); in experiment [7] it was 256 µg/mL (≈ 355 µM). Moreover, the MIC in experiment [8] is > 512 µg/mL; in experiment [9], 512 µg/mL (≈ 709 µM); in [10], 256 µg/mL (≈ 355 µM); in the experiment on M. tuberculosis H37Rv it was > 512 µg/mL; in [11], > 512 µg/mL; in experiment [12], > 32 µg/mL.
With `CC=CC(=O)N1CCN(c2cc3c(cc2F)c(=O)c(C(=O)O)cn3C2CC2)CC1` [Compound 1], the IC50 (in experiment [1]; at S. aureus DNA gyrase) was > 160 µM throughout.
Consider `CCCCCCCCCCCCCCCCCC(=O)N1CCCC2CN(c3c(F)cc4c(=O)c(C(=O)O)cn(C5CC5)c4c3OC)CC21` (centres unmarked) [Compound 16m, 1-Cyclopropyl-6-fluoro-8-methoxy-7-(1-octadecanoyl-octahydro-pyrrolo[3,4-b]pyridin-6-yl)-4-oxo-1,4-dihydro-quinoline-3-carboxylic acid], for which the IC50 with SW480 cells (Homo sapiens, SW480, 72 h) was < 5 µM; with SW480 cells, 2.7 ± 0.7 µM; in the experiment with SW620 cells it was 6.5 ± 1.2 µM; in the experiment on HaCaT cells it was 81.5 ± 4.2 µM. Besides, the “SI SW480” value in the experiment on SW480 cells was 30.2. Moreover, the “SI SW620” value in the experiment with SW620 cells worked out at 12.5. In the experiment with PC3 cells, the “SI PC3” value came to 34.0. Moreover, the MIC (in the experiment on S. aureus NCTC 4163; with S. aureus ATCC 25923; in the experiment on S. aureus ATCC 6538; in the experiment on S. aureus ATCC 29213; in experiment [2]; in experiment [3]) was 64 µg/mL (≈ 95.8 µM) in each case. Moreover, the MIC is 128 µg/mL (≈ 192 µM) in the experiment on E. coli ATCC 25922; > 512 µg/mL in the experiment with P. aeruginosa ATCC 27853 (ATCC27853, 18 h); 256 µg/mL (≈ 383 µM) in experiment [4]; 64 µg/mL (≈ 95.8 µM) in experiment [5]; 128 µg/mL (≈ 192 µM) in experiment [6]; 512 µg/mL (≈ 767 µM) in experiment [7]. Also, the MIC in experiment [8] was 512 µg/mL (≈ 767 µM); in experiment [9] it was 512 µg/mL (≈ 767 µM); in experiment [10] it was 512 µg/mL (≈ 767 µM); in the experiment with M. tuberculosis H37Rv it was > 512 µg/mL; in experiment [11] it was > 512 µg/mL; in experiment [12] it was > 32 µg/mL.
For the compound `COc1c(N2C[C@@H]3CCCN[C@@H]3C2)c(F)cc2c(=O)c(C(=O)O)cn(C3CC3)c12` [MXF, moxifloxacin, reference compound], the concentration for half-maximal inhibition (IC50) in the experiment on SW480 cells (Homo sapiens, SW480, 72 h) turned out to be 58.4 ± 3.1 µM; in the experiment on SW620 cells, 54.5 ± 3.8 µM; with PC3 cells, 46.4 ± 3.2 µM; in the experiment on HaCaT cells, 121 ± 6.8 µM. Besides, the MIC with S. aureus NCTC 4163 was 0.06 µg/mL (≈ 0.149 µM); with S. aureus ATCC 25923 it was < 0.03 µg/mL; with S. aureus ATCC 6538, 0.06 µg/mL (≈ 0.149 µM); in the experiment with S. aureus ATCC 29213, 0.06 µg/mL (≈ 0.149 µM); in experiment [2], 0.06 µg/mL (≈ 0.149 µM); in [3], 0.06 µg/mL (≈ 0.149 µM). Besides, the MIC in the experiment with E. coli ATCC 25922 was < 0.03 µg/mL; in the experiment on P. aeruginosa ATCC 27853 (ATCC27853, 18 h of treatment), > 512 µg/mL; in experiment [4], 2 µg/mL (≈ 4.98 µM); in experiment [5] it was 0.1 µg/mL (≈ 0.249 µM); in experiment [6], 0.1 µg/mL (≈ 0.249 µM); in experiment [7] it was 0.1 µg/mL (≈ 0.249 µM). Moreover, the MIC in experiment [8] came out at 4 µg/mL (≈ 9.96 µM); in [9], 0.1 µg/mL (≈ 0.249 µM); in [10], 0.1 µg/mL (≈ 0.249 µM); in the experiment with M. tuberculosis H37Rv (2 weeks of treatment) it was 0.25 µg/mL (≈ 0.623 µM); in experiment [11] (2 weeks of treatment), 0.125 µg/mL (≈ 0.311 µM).
